Measured values published in PubChem BioAssay AID1259407 (Chemical Carcinogenesis Research Information System (CCRIS), 2018).
Active and inactive are the calls of the source. The rule behind the calls is not given here.

Test system: CCRIS mutagenicity, Ames/micronucleus/aberration tests
Assay: CCRIS mutagenicity studies
[1] = Test System: AMES SALMONELLA TYPHIMURIUM, Strain/Indicator: TA98, Metabolic Activation: NONE, Method: STANDARD PLATE
[2] = Test System: AMES SALMONELLA TYPHIMURIUM, Strain/Indicator: TA100, Metabolic Activation: NONE, Method: STANDARD PLATE
[3] = Test System: AMES SALMONELLA TYPHIMURIUM, Strain/Indicator: TA98, Metabolic Activation: NONE, Method: PREINCUBATION
[4] = Test System: AMES SALMONELLA TYPHIMURIUM, Strain/Indicator: TA100, Metabolic Activation: NONE, Method: PREINCUBATION
[5] = Test System: AMES SALMONELLA TYPHIMURIUM, Strain/Indicator: TA1535, Metabolic Activation: NONE, Method: PREINCUBATION
[6] = Test System: AMES SALMONELLA TYPHIMURIUM, Strain/Indicator: TA1535, Metabolic Activation: NONE, Method: STANDARD PLATE

SMILES: [Cl][Rh-2]([Cl])([Cl])([Cl])[Cl]
- mutagenic call (Test System: AMES SALMONELLA TYPHIMURIUM, Strain/Indicator: TA97A, Metabolic Activation: NONE, Method: STANDARD PLATE): inactive; negative
- mutagenic call (Test System: AMES SALMONELLA TYPHIMURIUM, Strain/Indicator: TA97A, Metabolic Activation: RAT, LIVER, S-9, PHENOBARBITAL AND 5,6-BENZOFLAVONE, Method: STANDARD PLATE): active; positive
- mutagenic call (Test System: AMES SALMONELLA TYPHIMURIUM, Strain/Indicator: TA97A, Metabolic Activation: RAT, LIVER, S-9, PHENOBARBITAL AND BETA-NAPHTHOFLAVONE, Method: STANDARD PLATE): active; positive
- mutagenic call [1]: active; positive
- mutagenic call (Test System: AMES SALMONELLA TYPHIMURIUM, Strain/Indicator: TA98, Metabolic Activation: RAT, LIVER, S-9, PHENOBARBITAL AND 5,6-BENZOFLAVONE, Method: STANDARD PLATE): active; positive
- mutagenic call (Test System: AMES SALMONELLA TYPHIMURIUM, Strain/Indicator: TA98, Metabolic Activation: RAT, LIVER, S-9, PHENOBARBITAL AND BETA-NAPHTHOFLAVONE, Method: STANDARD PLATE): active; positive
- mutagenic call [2]: inactive; negative
- mutagenic call (Test System: AMES SALMONELLA TYPHIMURIUM, Strain/Indicator: TA100, Metabolic Activation: RAT, LIVER, S-9, PHENOBARBITAL AND 5,6-BENZOFLAVONE, Method: STANDARD PLATE): active; positive
- mutagenic call (Test System: AMES SALMONELLA TYPHIMURIUM, Strain/Indicator: TA100, Metabolic Activation: RAT, LIVER, S-9, PHENOBARBITAL AND BETA-NAPHTHOFLAVONE, Method: STANDARD PLATE): active; positive
- mutagenic call (Test System: AMES SALMONELLA TYPHIMURIUM, Strain/Indicator: TA102, Metabolic Activation: NONE, Method: STANDARD PLATE): active; positive
- mutagenic call (Test System: AMES SALMONELLA TYPHIMURIUM, Strain/Indicator: TA102, Metabolic Activation: RAT, LIVER, S-9, PHENOBARBITAL AND 5,6-BENZOFLAVONE, Method: STANDARD PLATE): active; positive
- mutagenic call (Test System: AMES SALMONELLA TYPHIMURIUM, Strain/Indicator: TA102, Metabolic Activation: RAT, LIVER, S-9, PHENOBARBITAL AND BETA-NAPHTHOFLAVONE, Method: STANDARD PLATE): active; positive

SMILES: COc1ccc(C(=O)/C(Br)=C\C(=O)O)cc1
- mutagenic call (End Point: IN VITRO CHROMOSOMAL ABERRATIONS, Test System: CHO CELLS, Metabolic Activation: NONE): active; positive
- mutagenic call (End Point: IN VITRO CHROMOSOMAL ABERRATIONS, Test System: CHO CELLS, Metabolic Activation: RAT, LIVER, S-9, AROCLOR 1254): active; positive
- mutagenic call (Test System: AMES SALMONELLA TYPHIMURIUM, Strain/Indicator: TA97, Metabolic Activation: HAMSTER, LIVER, S-9, AROCLOR 1254 (10%), Method: PREINCUBATION): active; positive
- mutagenic call (Test System: AMES SALMONELLA TYPHIMURIUM, Strain/Indicator: TA97, Metabolic Activation: NONE, Method: PREINCUBATION): active; positive
- mutagenic call (Test System: AMES SALMONELLA TYPHIMURIUM, Strain/Indicator: TA97, Metabolic Activation: RAT, LIVER, S-9, AROCLOR 1254 (10%), Method: PREINCUBATION): active; positive
- mutagenic call (Test System: AMES SALMONELLA TYPHIMURIUM, Strain/Indicator: TA98, Metabolic Activation: HAMSTER, LIVER, S-9, AROCLOR 1254 (10%), Method: PREINCUBATION): active; positive
- mutagenic call [3]: active; positive
- mutagenic call (Test System: AMES SALMONELLA TYPHIMURIUM, Strain/Indicator: TA98, Metabolic Activation: RAT, LIVER, S-9, AROCLOR 1254 (10%), Method: PREINCUBATION): active; positive
- mutagenic call (Test System: AMES SALMONELLA TYPHIMURIUM, Strain/Indicator: TA100, Metabolic Activation: HAMSTER, LIVER, S-9, AROCLOR 1254 (10%), Method: PREINCUBATION): active; positive
- mutagenic call [4]: active; positive
- mutagenic call (Test System: AMES SALMONELLA TYPHIMURIUM, Strain/Indicator: TA100, Metabolic Activation: RAT, LIVER, S-9, AROCLOR 1254 (10%), Method: PREINCUBATION): active; positive
- mutagenic call (Test System: AMES SALMONELLA TYPHIMURIUM, Strain/Indicator: TA1535, Metabolic Activation: HAMSTER, LIVER, S-9, AROCLOR 1254 (10%), Method: PREINCUBATION): active; positive
- mutagenic call [5]: inactive; negative
- mutagenic call (Test System: AMES SALMONELLA TYPHIMURIUM, Strain/Indicator: TA1535, Metabolic Activation: RAT, LIVER, S-9, AROCLOR 1254 (10%), Method: PREINCUBATION): active; positive
- mutagenic call (Test System: MOUSE LYMPHOMA, Strain/Indicator: L5178Y (TK+/TK-), Metabolic Activation: NONE, Method: SUSPENSION/PLATE): active; positive
- mutagenic call (Test System: UDS RODENT HEPATOCYTES, Strain/Indicator: THY INCORP (NON-S-PHASE), Metabolic Activation: 3-METHYLCHOLANTHRENE, Method: AUTORADIOGRAPHY): active; positive
- mutagenic call (Test System: UDS RODENT HEPATOCYTES, Strain/Indicator: THY INCORP (NON-S-PHASE), Metabolic Activation: AROCLOR, Method: AUTORADIOGRAPHY): active; positive
- mutagenic call (Test System: UDS RODENT HEPATOCYTES, Strain/Indicator: THY INCORP (NON-S-PHASE), Metabolic Activation: NONE, Method: AUTORADIOGRAPHY): inactive; negative

SMILES: c1ccc(-c2ccc(OCC3CO3)cc2)cc1 (stereo unspecified)
- mutagenic call [2]: active; positive
- mutagenic call [6]: active; positive

SMILES: CC(C)OC(=O)COc1ccc(Cl)cc1Cl
- mutagenic call [1]: inactive; negative
- mutagenic call (Test System: AMES SALMONELLA TYPHIMURIUM, Strain/Indicator: TA98, Metabolic Activation: RAT LIVER S-9, AROCLOR 1254, 10%, Method: STANDARD PLATE): inactive; negative
- mutagenic call [2]: inactive; negative
- mutagenic call (Test System: AMES SALMONELLA TYPHIMURIUM, Strain/Indicator: TA100, Metabolic Activation: RAT LIVER S-9, AROCLOR 1254, 10%, Method: STANDARD PLATE): inactive; negative
- mutagenic call [6]: inactive; negative
- mutagenic call (Test System: AMES SALMONELLA TYPHIMURIUM, Strain/Indicator: TA1535, Metabolic Activation: RAT LIVER S-9, AROCLOR 1254, 10%, Method: STANDARD PLATE): inactive; negative
- mutagenic call (Test System: AMES SALMONELLA TYPHIMURIUM, Strain/Indicator: TA1537, Metabolic Activation: NONE, Method: STANDARD PLATE): inactive; negative
- mutagenic call (Test System: AMES SALMONELLA TYPHIMURIUM, Strain/Indicator: TA1537, Metabolic Activation: RAT LIVER S-9, AROCLOR 1254, 10%, Method: STANDARD PLATE): inactive; negative
- mutagenic call (Test System: AMES SALMONELLA TYPHIMURIUM, Strain/Indicator: TA1538, Metabolic Activation: NONE, Method: STANDARD PLATE): inactive; negative
- mutagenic call (Test System: AMES SALMONELLA TYPHIMURIUM, Strain/Indicator: TA1538, Metabolic Activation: RAT LIVER S-9, AROCLOR 1254, 10%, Method: STANDARD PLATE): inactive; negative
- mutagenic call (Test System: UDS RAT HEPATOCYTES, Strain/Indicator: THYMIDINE INCORPORATION, Metabolic Activation: NONE, Method: AUTORADIOGRAPHY): inactive; negative

SMILES: CC(=O)c1cc(N)ccc1OCC(O)CNC(C)(C)C (stereo unspecified)
- mutagenic call [3]: inactive; negative
- mutagenic call (Test System: AMES SALMONELLA TYPHIMURIUM, Strain/Indicator: TA98, Metabolic Activation: RAT, LIVER, S-9, PHENOBARBITAL AND 5,6-BENZOFLAVONE (10 OR 50 µL/PLATE), Method: PREINCUBATION): inactive; negative
- mutagenic call [4]: inactive; negative
- mutagenic call (Test System: AMES SALMONELLA TYPHIMURIUM, Strain/Indicator: TA100, Metabolic Activation: RAT, LIVER, S-9, PHENOBARBITAL AND 5,6-BENZOFLAVONE (10 OR 50 µL/PLATE), Method: PREINCUBATION): inactive; negative
- mutagenic call [5]: inactive; negative
- mutagenic call (Test System: AMES SALMONELLA TYPHIMURIUM, Strain/Indicator: TA1535, Metabolic Activation: RAT, LIVER, S-9, PHENOBARBITAL AND 5,6-BENZOFLAVONE (10 OR 50 µL/PLATE), Method: PREINCUBATION): inactive; negative
- mutagenic call (Test System: AMES SALMONELLA TYPHIMURIUM, Strain/Indicator: TA1537, Metabolic Activation: NONE, Method: PREINCUBATION): inactive; negative
- mutagenic call (Test System: AMES SALMONELLA TYPHIMURIUM, Strain/Indicator: TA1537, Metabolic Activation: RAT, LIVER, S-9, PHENOBARBITAL AND 5,6-BENZOFLAVONE (10 OR 50 µL/PLATE), Method: PREINCUBATION): inactive; negative
- mutagenic call (Test System: E. COLI, Strain/Indicator: WP2 UVRA, Metabolic Activation: NONE, Method: PREINCUBATION): inactive; negative
- mutagenic call (Test System: E. COLI, Strain/Indicator: WP2 UVRA, Metabolic Activation: RAT, LIVER, S-9, PHENOBARBITAL AND 5,6-BENZOFLAVONE, Method: PREINCUBATION): inactive; negative

SMILES: OCCCCCl
- mutagenic call [3]: inactive; negative
- mutagenic call [4]: active; positive
- mutagenic call (Test System: AMES SALMONELLA TYPHIMURIUM, Strain/Indicator: TA100, Metabolic Activation: RAT, LIVER, S-9, KANECHLOR 500, Method: PREINCUBATION): active; positive
